Consider 16 compounds from patent US20120157433A1, “Heteroaryl Compounds as Kinase Inhibitors” (priority 2009, published 2012).

Some results are limits rather than exact numbers.

In general, IC50 refers to the concentration that inhibits the measured activity by half. Low values mean greater potency in that assay, high ones weaker potency in that assay.

One assay concerns neointima formation.
Assay: not given
Particulars: rats; cited from earlier work.
`COc1ccc(CNc2nc(N(CCO)CCO)nc3c2ncn3C(C)C)cc1` [CVT-313]: the “inhibition of neointima formation” value is recorded as “greater than 80%”.

The target in the next assay is Cdk9/cyclinT1 (Homo sapiens, UniProt P50750). As to the kind of experiment: Cdk9/cyclinT1 kinase assay (IMAP or Alpha Screen protocol).
Cdk9/cyclinT1, sequence (P50750 whole entry): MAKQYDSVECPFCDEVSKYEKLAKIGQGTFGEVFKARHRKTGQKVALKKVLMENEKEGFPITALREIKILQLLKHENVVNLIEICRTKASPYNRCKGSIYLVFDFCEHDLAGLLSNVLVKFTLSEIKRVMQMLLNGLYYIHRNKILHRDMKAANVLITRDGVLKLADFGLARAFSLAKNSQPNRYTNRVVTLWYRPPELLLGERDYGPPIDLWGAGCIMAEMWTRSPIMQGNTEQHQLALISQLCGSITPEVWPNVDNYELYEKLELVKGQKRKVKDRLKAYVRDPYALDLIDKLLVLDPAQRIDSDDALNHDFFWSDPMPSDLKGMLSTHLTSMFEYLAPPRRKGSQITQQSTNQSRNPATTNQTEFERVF
Cdk9/cyclinT1, sequence (O60563 whole entry partner): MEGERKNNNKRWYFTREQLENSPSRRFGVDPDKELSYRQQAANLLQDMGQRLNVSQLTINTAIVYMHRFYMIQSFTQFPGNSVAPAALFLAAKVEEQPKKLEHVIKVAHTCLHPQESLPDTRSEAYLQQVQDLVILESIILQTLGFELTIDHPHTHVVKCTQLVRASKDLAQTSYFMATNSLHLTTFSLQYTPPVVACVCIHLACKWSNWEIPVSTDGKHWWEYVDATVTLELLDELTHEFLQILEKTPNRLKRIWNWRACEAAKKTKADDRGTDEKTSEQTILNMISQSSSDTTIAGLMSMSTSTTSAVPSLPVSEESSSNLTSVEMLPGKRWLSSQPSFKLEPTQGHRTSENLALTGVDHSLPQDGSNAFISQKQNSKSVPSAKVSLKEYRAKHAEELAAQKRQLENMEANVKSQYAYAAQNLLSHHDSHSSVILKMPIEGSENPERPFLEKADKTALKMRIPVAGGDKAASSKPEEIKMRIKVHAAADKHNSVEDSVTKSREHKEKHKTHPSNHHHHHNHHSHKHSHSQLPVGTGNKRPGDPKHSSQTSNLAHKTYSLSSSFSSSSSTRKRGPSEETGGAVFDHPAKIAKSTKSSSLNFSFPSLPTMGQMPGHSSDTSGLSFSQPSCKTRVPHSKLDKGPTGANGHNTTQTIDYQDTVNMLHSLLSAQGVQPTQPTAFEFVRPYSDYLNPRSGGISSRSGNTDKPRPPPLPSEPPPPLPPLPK
Details: not given
In turn, `O=C(Nc1cc(-c2cc(F)cc(NCC3CCOCC3)c2)c(Cl)cn1)[C@H]1CCCNC1` [Example 11, (S)-Piperidine-3-carboxylic acid (5-chloro-4-{3-fluoro-5-[(tetrahydro-pyran-4-ylmethyl)-amino]-phenyl}-pyridin-2-yl)-amide] registered an IC50 of 11 nM.

`COc1ccc(F)cc1-c1cc(NC(=O)[C@@H]2CCCNC2)ncc1Cl` [Example 4, (R)—N-(5-Chloro-4-(5-fluoro-2-methoxyphenyl)pyridin-2-yl)piperidine-3-carboxamide] showed an IC50 of under 8 nM.

`O=C(Nc1cc(-c2cc(F)cc(NCC3CCOCC3)c2)c(Cl)cn1)C1CNCCO1` (stereo not shown) [Example 14, Morpholine-2-carboxylic acid (5-chloro-4-{3-fluoro-5-[(tetrahydro-pyran-4-ylmethyl)-amino]-phenyl}-pyridin-2-yl)-amide] showed a half-maximal inhibitory concentration (IC50) of under 8 nM.

Take `O=C(Nc1cc(-c2ccc(Cl)c(NCC3CCOCC3)c2)c(Cl)cn1)[C@@H]1CCCNC1` [Example 13, (R)—N-(5-Chloro-4-(4-chloro-3-(((tetrahydro-2H-pyran-4-yl)methyl)amino)phenyl)-pyridin-2-yl)piperidine-3-carboxamide]: the concentration for half-maximal inhibition (IC50) was under 8 nM.

`O=C(Nc1cc(-c2cccc(F)c2)c(Cl)cn1)[C@@H]1CCCNC1` [Example 2, (R)-Piperidine-3-carboxylic acid [5-chloro-4-(3-fluoro-phenyl)-pyridin-2-yl]-amide] yielded an IC50 of 10 nM.

The compound `O=C(Nc1cc(-c2cccc(NCC3CCOCC3)c2)c(Cl)cn1)[C@H]1CCCNC1` [Example 8, (S)-Piperidine-3-carboxylic acid (5-chloro-4-{3-[(tetrahydro-pyran-4-ylmethyl)-amino]-phenyl}-pyridin-2-yl)-amide] had an IC50 of 23 nM.

For the compound `O=C(Nc1cc(-c2cc(NCC3CCOCC3)ccc2F)c(Cl)cn1)[C@H]1CNCCO1` [Example 15, (R)-Morpholine-2-carboxylic acid (5-chloro-4-{2-fluoro-5-[(tetrahydro-pyran-4-ylmethyl)-amino]-phenyl}-pyridin-2-yl)-amide], the half-inhibitory concentration (IC50) stood at 16 nM.

With `CC(C)Oc1ccc(F)cc1-c1cc(NC(=O)[C@@H]2CCCNC2)ncc1Cl` [Example 5, (R)-Piperidine-3-carboxylic acid [5-chloro-4-(5-fluoro-2-isopropoxy-phenyl)-pyridin-2-yl]-amide], 2 nM corresponded to half-maximal inhibition (IC50).

For the compound `O=C(Nc1cc(-c2ccccc2)c(Cl)cn1)[C@@H]1CCCNC1` [Example 1, (R)—N-(5-chloro-4-phenylpyridin-2-yl)piperidine-3-carboxamide], 20 nM corresponded to half-maximal inhibition (IC50).

Compound `CC(C)(C)OC(=O)N1CCC[C@@H](C(=O)Nc2cc(-c3cc(F)cc(NCC4CCOCC4)c3)c(Cl)cn2)C1` [Example 10, (R)-3-(5-Chloro-4-{3-fluoro-5-[(tetrahydro-pyran-4-ylmethyl)-amino]-phenyl}-pyridin-2-ylcarbamoyl)-piperidine-1-carboxylic acid tert-butyl ester] gave an IC50 of 11 nM.

The compound `O=C(Nc1cc(-c2cc(NCC3CCOCC3)ccc2F)c(Cl)cn1)[C@@H]1CCCNC1` [Example 12, (R)-Piperidine-3-carboxylic acid (5-chloro-4-{2-fluoro-5-[(tetrahydro-pyran-4-ylmethyl)-amino]-phenyl}-pyridin-2-yl)-amide] returned an IC50 of under 8 nM.

`O=C(Nc1cc(-c2cccc(NCC3CCOCC3)c2)c(Cl)cn1)[C@@H]1CCCNC1` [Example 7, (R)—N-(5-chloro-4-(3-(((tetrahydro-2H-pyran-4-yl)methyl)amino)phenyl)pyridin-2-yl)piperidine-3-carboxamide] showed a half-inhibitory concentration (IC50) of under 8 nM.

Turning to `COc1ccccc1-c1cc(NC(=O)[C@@H]2CCCNC2)ncc1Cl` [Example 3, (R)-Piperidine-3-carboxylic acid [5-chloro-4-(2-methoxy-phenyl)-pyridin-2-yl]-amide], the concentration for half-maximal inhibition (IC50) was under 8 nM.

`O=C(Nc1cc(-c2cccc(OCc3cccc(F)c3)c2)c(Cl)cn1)[C@@H]1CCCNC1` [Example 6, (R)-Piperidine-3-carboxylic acid {5-chloro-4-[3-(3-fluoro-benzyloxy)-phenyl]-pyridin-2-yl}-amide] registered an IC50 of under 8 nM.

In turn, `O=C(Nc1cc(-c2cc(F)cc(NCC3CCOCC3)c2)c(Cl)cn1)[C@@H]1CCCNC1` [Example 9, (R)—N-(5-Chloro-4-(3-fluoro-5-(((tetrahydro-2H-pyran-4-yl)-methyl)amino)phenyl)-pyridin-2-yl)piperidine-3-carboxamide] registered an IC50 of under 8 nM.
